According to US8313763B2, “Sustained delivery formulations of rapamycin compounds” (Tolmar Therapeutics, Inc., priority 2004, dated 2012):

Experiments:
[1] = tested on: Human umbilical endothelial cells; assay: VEGF-activated endothelial cell proliferation, [3H]-thymidine incorporation; assay type: cell-based; details: [3H]-thymidine incorporation after 48 hours
Protocol: (§1) Targeted tissue concentrations were estimated from in vitro experiments assessing the inhibitory effects of rapamycin on endothelial cell proliferation and cytokine release from immune cells. Human umbilical endothelial cells were activated with Vascular Endothelial Growth Factor (VEGF) and incubated with various concentrations of rapamycin. Cell proliferation was evaluated by quantifying [3}H-thymidine incorporation after 48 hours. […] The IC50 for the release of TNFalpha from Lipopolysaccharide and IFNgamma treated THP-1 cells (monocytic cell line) was ˜1 nM and the IC50 for the release of IFNgamma from human peripheral blood T cells stimulated with phytohemagglutanin was ˜2 nM.

[2] = tested on: choroidal neovascularization (CNV); assay: Laser-induced CNV model, fluorescein angiography evaluation of leaky CNV; assay type: in vivo, Long Evans rats; details: for incidence of developing leaky CNV 2 weeks after laser photocoagulation: vehicle 83%
Protocol: (§2) Thermal laser infrared light (diode laser 810 nm) at 200 mW for 0.075 seconds was delivered to the fundus of Long Evans rats using a slit lamp and a slit lamp adaptor. A total of 6 lesions with 75 μm diameter were placed in a circular pattern surrounding the optic disc on the posterior pole.
(§3) Intravitreal injection was performed immediately after laser photocoagulation. Briefly, three days prior to the injection, 0.3% Ciloxan ointment was applied to the eye once daily. At the time of injection, the eye pocket was irrigated and the conjunctiva swabbed with 1.0% Betadine solution. A 30-gauge needle connected to a 10-μL Hamilton syringe that contained 5 μL carboxymethylcellulose (CMC)-based Rapamycin suspension (0.5, 5, 10 or 40 mg/mL) or CMC vehicle alone was inserted 1 mm posterior to the corneoscleral limbus. The injection began when the bevel of the needle faced down and reached the vitreous about 1-2 mm in depth with the visual aid of a dissecting microscope. After injection, topical 0.3% Ciloxan ointment was applied to the eye once daily for 2 days.
FA was performed on the 14th day after intravitreal injection of Rapamycin. Briefly, a 25-gauge butterfly catheter was placed in the tail vein on an anesthetized animal and a Heparin-Lock solution (0.50 mL of 10,000 IU/mL Heparin Sodium with 0.95 mL 0.9% Saline) was used to fill the catheter line to maintain intravenous access. A dose of 10 mg/kg of Diofluor 10% (Fluorescein Sodium 10%) was delivered through the tail vein, followed by a flush of sterile saline to ensure full delivery of Diofluor 10%. An infusion pump (Becton-Dickinson) connected to a 60 cc syringe was used to infuse the Diofluor 10% at a constant rate of 6 mL/min (8.4-13.2 pounds per square inches) to allow for consistency in the synchronization of the fluorescein bolus injection and the angiogram acquisition. Photographs were taken with a fluorescence fundus camera at 1-10, 30, 60, 90, 180, and 300 sec after Diofluor 10% administration. The leakiness of CNV was assessed by two independent readers masked to the treatment.

[3] = tested on: THP-1 cells (monocytic cell line); assay: TNFalpha release from Lipopolysaccharide and IFNgamma treated THP-1 cells; assay type: cell-based; details: Homo sapiens
Protocol: as §1

[4] = tested on: human peripheral blood T cells; assay: IFNgamma release from phytohemagglutanin-stimulated T cells; assay type: cell-based; details: T-cell, T cells stimulated with phytohemagglutanin
Protocol: as §1

[5] = tested on: choroidal neovascularization (CNV); assay: Laser-induced CNV model, histological evaluation (CNV area, CD31-positive cell count); assay type: in vivo, Long Evans rats
Protocol: as §2
as §3, with “A 30-gauge needle connected to a 10-μL Hamilton syringe that contained 5 μL carboxymethylcellulose (CMC)-based Rapamycin suspension (0.5, 5, 10 or 40 mg/mL) or CMC vehicle alone was inserted 1 mm posterior to the corneoscleral limbus.” left out
Eyes were enucleated and chorioretinal tissues that contained the CNV lesions prepared and fixed for about 18 hours in formic acid alcohol, and then replaced with 70% alcohol until the specimen was processed to wax by a standard method. Slides were stained with mouse anti rat CD31 (Chemicon, UK) by a standard immunohistochemistry protocol. This briefly consisted of removal of endogenous peroxidase enzymes with methanol and hydrogen peroxide, primary antibody as above, and the secondary donkey antibody anti mouse conjugated to biotin. Streptavidin ABC and Vector VIP substrate (Vector labs, Burlingame Calif.) were further added. Haematoxylin was used as a counterstain. Representative images before and after the center of each CNV lesion were taken using the 20× objective of an Olympus BX61 microscope fitted with a Spot RT colour camera (Diagnostic instruments, MI USA). Each image was applied to the standard image analysis macro in the software Image pro to identify the mean of lesion area for each CNV and the mean of CD31 positive cell counts (i.e. endothelial cells) within the CNV lesion area. All measurements were generated by two independent readers masked to the treatments. The data was analyzed in Excel and GraphPad Prism. The 80% correlation found between readers was deemed acceptable.

[6] = tested on: Ser235/236 phosphorylation of S6 ribosomal protein (downstream target of mTOR); assay: Pharmacodynamic evaluation: S6 phosphorylation in chorioretinal tissues by western blot; assay type: in vivo, rat
Protocol: as §3
Upon euthanasia of the animal, the eyes were cut along the equator, separating the anterior and posterior segments. The vitreous was removed and the remaining back of eye (with intact retina, choroid and sclera) was placed in a labeled Nalgene Cryotube, immediately immersed in liquid nitrogen, and stored at −80° C. until ready to use. Upon lysis, tubes containing tissue were brought to room temperature to thaw. […] Protein concentration of each sample was determined using the Pierce BCA Protein Determination Kit (Pierce, CAT #: 23225) and BSA as a standard. Samples were analyzed by SDS-PAGE, followed by western blotting. […] Bound antibodies were detected using ECL or ECL plus Western Blotting Reagents. Densitometric evaluation was performed on blots scanned by Bio-Rad Multi-Analyst Software, and analyzed in MS Excel and GraphPad Prism.
Rapamycin inhibits mTOR activity, which then down-regulates Ser235/236 phosphorylation of the downstream target of mTOR, the S6 ribosomal protein. In order to evaluate the pharmacodynamic response of intravitreally administered rapamycin in the eye, the serine phosphorylation of S6 protein extracted from chorioretinal tissues was analyzed by western blot, and standardized by the total amount of S6 protein. […]

SMILES | IC50 [1] | response in the rat model of laser-induced CNV ([2]; 5 μg intravitreally injected) | incidence of developing leaky CNV 2 weeks after laser photocoagulation ([2]; single intravitreal injection of 0.5 μg rapamycin in CMC) | incidence of developing leaky CNV 2 weeks after laser photocoagulation ([2]; single intravitreal injection of 5 μg rapamycin in CMC) | incidence of developing leaky CNV 2 weeks after laser photocoagulation ([2]; single intravitreal injection of 50 μg rapamycin in CMC) | IC50 [3] | IC50 [4] | reduction in CNV area compared to the vehicle group ([5]; 0.5 μg intravitreal) | reduction in CNV area compared to the vehicle group ([5]; 5 μg intravitreal) | reduction in CNV area compared to the vehicle group ([5]; 50 μg intravitreal) | overall reduction in the number of endothelial cells within the CNV area compared to the vehicle group ([5]; 50 μg, 5 μg and 0.5 μg intravitreal, overall) | level of phosphorylated Ser235/236 on S6 ribosomal protein, standardized by total S6 ([6]; chorioretinal tissues, day 1, 3 and 7 post-dosing, vs untreated or vehicle-injected eyes, FIG. 10) | onset of inhibitory effect on S6 phosphorylation ([6]; intravitreal, rat) | duration of inhibitory effect on S6 phosphorylation ([6]; post-dosing, longest follow-up timepoint) | incidence of leaky CNV at the 14-day follow-up ([2]; intravitreal dose of 200 μg, positive control) | inhibition of CNV area ([5]; TA, intravitreal 200 μg) | inhibition of endothelial cell count ([5]; TA, intravitreal 200 μg)
CO[C@H]1C[C@@H]2CC[C@@H](C)[C@@](O)(O2)C(=O)C(=O)N2CCCC[C@H]2C(=O)O[C@H]([C@H](C)C[C@@H]2CC[C@@H](O)[C@H](OC)C2)CC(=O)[C@H](C)/C=C(\C)[C@@H](O)[C@@H](OC)C(=O)[C@H](C)C[C@H](C)/C=C/C=C/C=C/1C [rapamycin, Rapamycin] | 69 nM | nearly a complete response | 65% | 5% | 2% | ~1 nM | ~2 nM | 15% | 55% | 50% | 50-60% | significantly reduced | ≤ 24 h | 7 days | – | – | –
CC1(C)O[C@@H]2C[C@H]3[C@@H]4CCC5=CC(=O)C=C[C@]5(C)[C@@]4(F)[C@@H](O)C[C@]3(C)[C@]2(C(=O)CO)O1 [triamcinolone acetonide] | – | – | – | – | – | – | – | – | – | – | – | – | – | – | 10% | approximately 50% | ~60%
